Test results reported in article PMC9610617, “Anti-HIV Ermiasolides from Croton megalocarpus” (Molecules, 2022).
Converted amounts (≈) assume the structure as drawn. “And” between values parts separate entries of the source, which are not always exact repeats. Equal entries are not always repeated. Where two headings read alike, the source gives them in different places.

Experiments:
[1] = tested on: human T-lymphocytic MT-4 cells; test: in vitro; details: MT-4 cells, 5 days, MTT, mean ± S.E.M, n = 3; for MNTC, maximum nontoxic concentration: concentration with cell viability above 80% (CC20)
Source text: (§1) In this study, human T-lymphocyte MT-4 cells (ARP-120) were obtained from the National Institute of Health (NIH) HIV Reagent Program, Division of AIDS, National Institute of Allergy and Infectious Diseases (NIAID), NIH; donated by Dr. Douglas Richman. Human T-lymphocytic MT-4 cells express CD4, CXCR4 and CCR5 and are used for cytotoxicity inhibition assays for antiviral drugs. The vials containing frozen MT-4 cells were retrieved from the liquid nitrogen tank and rapidly thawed. In a tissue culture laminar flow hood, the exterior of the vials was decontaminated by spraying 70% ethanol. […] The CCM was sterilized with a 0.22 µm membrane filter before use. The cultures were incubated at 37 °C in a humidified incubator with atmospheric conditions of 5% CO2. […] The cell count and viability were measured by the trypan blue dye exclusion technique.
(§2) The cytotoxicity test was conducted to evaluate the cytotoxicity of the plant extracts by measuring cell death caused by the plant extracts. The assay was conducted using an MTT colorimetric assay as described by. The MTT assay is based on the reduction of the yellow-colored tetrazolium salt MTT 3-(4,5-dimethylthiazol-2-yl)-2,5-diphenyltetrazolium bromide) by NAD(P)H-dependent cellular oxidoreductase enzymes to an insoluble dark-blue colored formazan that can be measured spectrophotometrically. Formazan production indicates the number of viable cells; therefore, an increase or decrease in cellular viability results in a change in the amount of formazan formed, which indicates the degree of cellular cytotoxicity (CC50) caused by the plant extract.
(§3) MTT (3-(4,5-dimethylthiazol-2-yl)-2,5-diphenyl tetrazolium bromide) was dissolved in PBS to obtain a final concentration of 5 mg/mL and filtered to sterilize and remove insoluble residue. The assay was carried out in 96-well, flat-bottomed microtiter plates. To each well, 200 µL of MT-4 cells (1 × 10^5 cells) in growth media was added. The plates were preincubated for 24 h at 37 °C to allow stabilization. Then, 50 μL of the test compounds (at a concentration of 4 mg/mL) were added to the first column of the well. With a multichannel pipette, 50 μL was transferred (in triplicate) from the wells labeled 1 to wells labeled 2, and such transfers were continued (serial dilution), moving from left to right, changing tips prior to mixing contents of the next column of wells. Finally, 50 μL was discarded from the wells in column 12. […] Each dilution was tested in triplicate. The negative control (NC) wells contained 50 µL of MT-4 cells in 0.5% DMSO [39].
(§4) A 96-well microtiter plate containing the test compounds, positive and negative controls was incubated at 37 °C in a humidified atmosphere of 5% CO2 for 5 days. After incubation, 20 μL of MTT reagent (5 mg/mL MTT in phosphate-buffered saline) was added to each test well and control well. The plate was further incubated at 37 °C in a CO2 incubator for 4 h. After 4 h of incubation, 100 μL of DMSO was added to dissolve the dark-blue formazan crystals from surviving cells. After the formazan crystals were dissolved completely, the resulting optical density (OD) readings were measured relative to the controls on an ELISA plate reader at 570 nm at a reference wavelength of 620 nm. […] The concentration that determined cell viability above 80% (CC20) was chosen as the maximum non-toxic concentration (MNTC).

HIV-1IIIB = test: Anti-HIV activity: inhibition of HIV-induced cytopathic effect in infected MT-4 cells (MTT); assay type: cell-based, Human immunodeficiency virus type 1; details: for IC50: Human immunodeficiency virus 1, MT4, 120 h; for SI, selective index: ratio CC50 (MT-4) / IC50 (HIV-1IIIB)
Protocol: Human immunodeficiency virus type 1 (HIV-1IIIB) strain was obtained from the NIH HIV Reagent Program, Division of AIDS, NIAID, NIH. Dr. Robert Gallo donated human immunodeficiency virus-1 IIIB (ARP-398). HIV-1IIIB is highly capable of replicating in human T cell lines and appears to be well adapted for in vitro culture in T cells. The frozen HIV-1IIIB vials were thawed by immersion in room temperature water, and the vial was swirled until viruses were thawed. Then, 400 µL of the virus was transferred to 75 cm^2 tissue culture flasks (T75) containing 10 mL of 1 × 10^5 pelleted MT4 cells/mL, vortexed and incubated at 37 °C for 1 hr for virus adsorption. After 1 hr, 20 mL of RPMI-1640 was added gently and mixed with vortexing. The cells were then pelleted by centrifuging at 1500 rpm for 5 min. The pelleted cells were then washed and resuspended in 30 mL RPMI 1640 with L-glutamine and 20% fetal bovine serum in a T75 flask, incubated at 37 °C and monitored for the development of cytopathic effects (CPEs).
The virus infectivity test was performed to determine the infectious titer of the virus, which can cause cytopathic effects (CPE) in tissue culture over a reasonable period of 3 to 10 days while cells in culture remain viable. In addition, this procedure was performed to quantify the amount of virus required to produce a cytopathic effect in 50% of cell culture replicates (TCID50). CPE induced by the virus was observed under a microscope after 3–4 days. The TCID50 was then calculated as described by. For the anti-HIV activity testing, 640 µL of HIV-1IIIB virus at 1.26 × 10^8 TCID50/mL was used to infect 1 × 10^8 cell/mL. All procedures were carried out following biosafety guidelines defined in the BMBL, NIH-CDC HHS Publication No. (CDC) 21-1112 [44].
MT-4 cells suspended at 1 × 10^8 cells/mL were infected with 640 µL of HIV-1IIIB virus at 1.26 × 10^8 TCID50/mL as described in above. After infection, 200 µL HIV-infected MT-4 cells (1 × 10^5 cells/well) in growth media were added to each well. The plates were preincubated for 24 h at 37 °C to allow stabilization. Then, 50 μL of the test compounds (at a concentration of 4 mg/mL) were added to the first column of the well. With a multichannel pipette, 50 μL was transferred (in triplicate) from the wells labeled 1 to wells labeled 2. Such transfers were continued (serial dilution), moving from left to right, changing tips prior to mixing contents of the next column of wells. Finally, 50 μL was discarded from the wells in column 12. Different concentrations ([…]) of test compounds were prepared through serial dilution. Each dilution was tested in triplicate. The microtiter plates were incubated at 37 °C in a 5% CO2 incubator for 5 days. […] After 5 days of incubation, cell viability was determined by the MTT assay as described by.
A dose-response curve was plotted to calculate the concentrations that reduced viral replication by 50% (IC50). […] The efficacy of the test compounds, was determined by calculating the viral inhibition rate (EmaxAV) using Equation (1), as previously described by.

in vitro = details: human, MT-4 T-lymphocytic cells
Source text: as §1, §2, §3, §4

[2] = HIV-1IIIB-infected MT-4 cells, 5 days, MTT, mean ± S.E.M, n = 3
[3] = read-out: IC50, 50% antiviral effect concentration, HIV-1IIIB-infected MT-4 cells, 5 days, MTT, mean ± S.E.M, n = 3

SMILES | MNTC, maximum nontoxic concentration [1] | CC50, 50% cytotoxic concentration [1] | EmaxC, maximum cytotoxic effect % [1] | EmaxAV, maximum antiviral effect % (viral inhibition rate) (HIV-1IIIB; [2]) | IC50 (HIV-1IIIB; HIV-1IIIB-infected MT-4 cells, 5 days, MTT, mean ± S.E.M, n = 3, read-out: IC50, 50% antiviral effect concentration) | SI, selective index (HIV-1IIIB) | IC50 (HIV-1IIIB; [3]) | CC50 at 5 days (in vitro) | IC50, 50% antiviral effect concentration (HIV-1IIIB; [2])
Nc1nc(NC2CC2)c2ncn([C@H]3C=C[C@@H](CO)C3)c2n1 [ABC, abacavir, reference compound] | 0.18 ± 0.03 µg/mL | 0.26 ± 0.00 µg/mL (≈ 0.908 µM) | 17.83 ± 0.57% | 58.67 ± 0.43% | 0.05 ± 0.031 µg/mL (≈ 0.175 µM) | 5.0 |  |  | 
Cc1cn([C@H]2C[C@H](N=[N+]=[N-])[C@@H](CO)O2)c(=O)[nH]c1=O [AZT, zidovudine, reference compound] |  |  |  | 83.5 ± 0.57% |  |  | 0.002 µg/mL (≈ 0.00748 µM) |  | 
CO[C@@]12C[C@]3(C)CCC[C@H](C)[C@@]3(O)CC1=C(C)C(=O)O2 [Compound 1, 5β-Hydroxy-8α-methoxy eudesm-7(11)-en-12,8-olide] | 41.84 ± 0.11 µg/mL |  | 62.21 ± 0.67% | 93% and 93.4 ± 0.60% |  | 39,872.3 | 0.002 µg/mL (≈ 0.00713 µM) | 96.77 ± 0.44 µg/mL (≈ 345 µM) | 
CC1=C2C[C@]3(O)[C@@H](C)CCC[C@@]3(C)C[C@@]2(O)OC1=O [Compound 2, 5β,8α-Dihydroxy eudesm-7(11)-en-12,8-olide] | 4.973 ± 0.25 µg/mL |  | 81.59 ± 0.41% | 69.5% and 69.51 ± 0.26% |  | 25,339.5 | 0.002 µg/mL (≈ 0.00751 µM) | 38.4 ± 0.63 µg/mL (≈ 144 µM) | 
CC1=C2C[C@]3(O)[C@@H](C)CCC[C@@]3(C)C[C@@H]2OC1=O [Compound 3, 5β-Hydroxy-8H-β-eudesm-7(11)-en-12,8-olide] | 64.93 ± 0.26 µg/mL |  | 65.00 ± 0.01% | 77.5% and 77.46 ± 0.93% |  | 3384.4 | 0.04 µg/mL (≈ 0.16 µM) | 148.1 ± 0.05 µg/mL (≈ 592 µM) | 0.044 ± 0.01 µg/mL (≈ 0.176 µM)
Cc1ccnc2c1NC(=O)c1cccnc1N2C1CC1 [NVP, Nevirapine, reference compound] | 0.57 ± 0.0 µg/mL | 0.82 ± 0.0 µg/mL (≈ 3.08 µM) | 39.13 ± 0.65% | 72.53 ± 0.47% |  | 3.5 | 0.24 ± 0.09 µg/mL (≈ 0.901 µM) |  | 
C[C@H](Cn1cnc2c(N)ncnc21)OCP(=O)(O)O [TDF, tenofovir] | 4.92 ± 0.71 µg/mL | 6.73 ± 0.24 µg/mL (≈ 23.4 µM) | 13.17 ± 0.43% | 80.55 ± 0.46% |  |  | 0.04 ± 0.01 µg/mL (≈ 0.139 µM) |  | 
